Results reported in ChEMBL document CHEMBL5226384, “Total Syntheses, Absolute Configurations, and Cytotoxicity Evaluation of Ugonstilbenes A, B, and C from the Rhizomes of Helminthostachys zeylanica” (J Nat Prod, 2023).

What was measured:
[1] = Cytotoxicity against fibroblast (unknown origin) cells assessed as reduction in cell viability incubated for 6 hrs by SRB assay; type: toxicity, cell-based
HT-29 = assay: Cytotoxicity against human HT-29 cells assessed as reduction in cell viability incubated for 6 hrs by SRB assay; type: functional, cell-based; details: HT-29, 6 h
MCF7 = assay: Cytotoxicity against human MCF7 cells assessed as reduction in cell viability incubated for 6 hrs by SRB assay; type: functional, cell-based; details: MCF7, 6 h
CCRF-CEM = assay: Cytotoxicity against human CCRF-CEM cells assessed as reduction in cell viability incubated for 6 hrs by SRB assay; type: functional, cell-based
NCI-H460 = assay: Cytotoxicity against human NCI-H460 cells assessed as reduction in cell viability incubated for 6 hrs by SRB assay; type: functional, cell-based; details: NCI-H460, 6 h

| SMILES | IC50 at 6 h [1] | IC50 (HT-29) | IC50 (MCF7) | IC50 (CCRF-CEM) | IC50 (NCI-H460) |
| --- | --- | --- | --- | --- | --- |
| CC1=CCCC(C)(C)[C@@H]1Cc1cc(/C=C/c2cc(O)cc(O)c2)ccc1O | 7100 nM | 5200 nM | 4100 nM | 3000 nM | 5500 nM |
| CC1=CCCC(C)(C)[C@H]1Cc1cc(/C=C/c2cc(O)cc(O)c2)ccc1O | 7400 nM | 5000 nM | 4400 nM | 2800 nM | 6000 nM |
| CC1(C)CCC[C@]2(C)Oc3cc(/C=C/c4ccc(O)cc4)cc(O)c3C[C@H]12 | 6600 nM | 3600 nM | 1900 nM | 1700 nM | 1400 nM |
| CC1(C)CCC[C@]2(C)Oc3ccc(/C=C/c4cc(O)cc(O)c4)cc3C[C@H]12 | 8000 nM | 3300 nM | 1700 nM | 1400 nM | 2200 nM |
| CC1=CCCC(C)(C)[C@H]1Cc1c(O)cc(/C=C/c2ccc(O)cc2)cc1O | 6600 nM | 2500 nM | 1700 nM | 820 nM | 1700 nM |
| CC1(C)CCC[C@@]2(C)Oc3cc(/C=C/c4ccc(O)cc4)cc(O)c3C[C@@H]12 | 7100 nM | 2200 nM | 1400 nM | 1100 nM | 1700 nM |
| CC1=CCCC(C)(C)[C@@H]1Cc1c(O)cc(/C=C/c2ccc(O)cc2)cc1O | 6600 nM | 4400 nM | 8000 nM | 270 nM | 1700 nM |
| CC1(C)CCC[C@@]2(C)Oc3ccc(/C=C/c4cc(O)cc(O)c4)cc3C[C@@H]12 | 6900 nM | 2800 nM | 2800 nM | 1400 nM | 2500 nM |
| COc1cccc2c1C(=O)c1c(O)c3c(c(O)c1C2=O)C[C@@](O)(C(=O)CO)C[C@@H]3O[C@H]1C[C@H](N)[C@H](O)[C@H](C)O1 [DOXORUBICIN] | 67000 nM | 120 nM | 270 nM | 90 nM | 10 nM |
| Oc1ccc(/C=C/c2cc(O)cc(O)c2)cc1 [RESVERATROL] | 218000 nM | 120000 nM | 135000 nM | 900 nM | 58000 nM |
